According to US20140303092A1 (CHIMERIX, INC., priority 2011, published 2014):

Test: Study HDP-CDV-201: safety and tolerability (adverse events, laboratory abnormalities, discontinuations)
Assay type: in vivo, human (adult allogeneic HSCT recipients)
Experimental: Clinical Studies of HDP-CDV were performed and described in detail in the following Examples. For example, HDP-CDV-201 is a placebo-controlled, dose-escalating trial in HSCT CMV (R+) recipients, evaluating the ability of HDP-CDV to prevent or control CMV infection was carried out. Five cohorts were established in which participants or subjects received either placebo or the HDP-CDV orally, in doses ranging from 40 mg weekly (QW) to 200 mg twice weekly (BIW). Subjects who were post-HSCT were enrolled at the time of engraftment and randomized to HDP-CDV or placebo (3 to 1 ratio) and received blinded therapy until approximately 100 day post-transplantation. HDP-CDV doses were 40 mg QW, 100 mg QW, 200 mg QW, 200 mg BIW and 100 mg BIW. Escalation to the next dose was decided by the data monitoring committee after review of the safety data from the previous Cohort. Subjects who developed CMV disease or CMV infection requiring pre-emptive therapy with local standard of care were discontinued from blinded therapy and followed for 4 weeks. Subjects who completed treatment with blinded therapy were followed for 8 weeks post-therapy.
Data from Study HDP-CDV-201 also provided characterization of the safety and tolerability profile of HDP-CDV when administered for the prevention or control of CMV infection in high risk (R^+) post-HSCT adult subjects.
The Safety population (SAFETY) included all randomized subjects who took at least one dose of study treatment. This population was used to summarize safety outcomes based on the treatment actually received, in cases where a subject was treated contrary to the randomization schedule.
The safety and tolerability profile of HDP-CDV, including subject demographics and Baseline characteristics; the AE profile; and laboratory abnormalities of interest were analyzed in the cohorts followed in this investigation.
Subjects completing the treatment period received a full course of study medication; those completing the entire study attended visits through 8 weeks of follow up. Subjects who discontinued treatment may have done so for protocol specified reasons (e.g. development of clinically significant CMV infection requiring preemptive treatment with excluded anti-CMV medications) or for other reasons (e.g., withdrawal, adverse events, loss to follow-up). The disposition of subjects in Study HDP-CDV-201 during the double-blind, placebo-controlled treatment period (through Week 11) is listed by dosing Cohort in TABLE 23.
Adverse events were examined by severity to ensure that all safety signals were identified in this study population. Because of the frequency of events in HSCT recipients, particular attention was given to evaluation of Grade 3 […], 4 (severe), and 5 (fatal) adverse events.
Only those preferred terms for which at least one Grade 3 or higher event was experienced in any treatment group are listed. Cytomegalovirus-related AEs are excluded from this analysis.
HDP-CDV is a lipid conjugate of CDV. Because CDV is known to have adverse effects on renal function and bone marrow, decreased GFR and persistent neutropenia were identified as AEs of special interest. Key renal and hematological (TABLE 30) laboratory parameters were measured and listed below by Study HDP-CDV-201 treatment groups. TABLE 30 includes abnormal levels of serum creatinine, neutrophils, platelets, WBCs, and hemoglobin and includes data at Screening and during the treatment period.
A common metric for unit based dosing of medications is by weight (mg/kg). When the distribution of weights was examined for all subjects participating in the study, the median was 78 kg and the lower 25th percentile weight was approximately 65 kg, which translates to a cut-off of ˜3 mg/kg for a 200 mg total weekly dose. Based upon this approach, a cut-off of 3 mg/kg was used to assess the frequency of diarrhea and associated GI AEs reported for the subjects in Cohorts 3 or 4a (TABLE 40).

CCCCCCCCCCCCCCCCOCCCOP(=O)(O)COC(CO)Cn1ccc(N)nc1=O (stereo not drawn) [HDP-CDV]
0%: Proportion of Subjects with Stage 3 or 4 Gut GVHD (Cohort 3, 200 mg QW)
1 (2.6%): ALT (any time during therapy) >20 × ULN, subjects (Cohort 3, 200 mg QW) | AST (any time during therapy) >5 × ULN-10 × ULN, subjects (Cohort 3, 200 mg QW) | GI AE Leading to Study Drug Discontinuation: Diarrhoea, subjects (Cohort 3, 200 mg QW) | Gastrointestinal AE Abdominal discomfort, subjects (Cohort 3, 200 mg QW) | Gastrointestinal AE Abdominal pain upper, subjects (Cohort 3, 200 mg QW) | Gastrointestinal AE Diverticulum intestinal haemorragic, subjects (Cohort 3, 200 mg QW) | Gastrointestinal AE Flatulence, subjects (Cohort 3, 200 mg QW) | Hepatobiliary clinical AE Jaundice, subjects (Cohort 3, 200 mg QW) | TEAE Abdominal pain Grade 2, subjects (Cohort 3, 200 mg QW) | TEAE Abdominal pain Grade 3, subjects (Cohort 3, 200 mg QW) | TEAE Nausea Grade 3, subjects (Cohort 3, 200 mg QW) | TEAE Vomiting Grade 2, subjects (Cohort 3, 200 mg QW) | TEAE Vomiting Grade 3, subjects (Cohort 3, 200 mg QW)
2.52 fold: Serum ALT level, Median fold increase from Baseline at Follow-up Week 1 (Cohort 3, 200 mg QW)
not recovered/not: Outcome of hepatobiliary AE acute liver injury, subject 3007 (Cohort 3) | Outcome of hepatobiliary AE gallbladder sludge, subject 3044 (Cohort 3) | Outcome of hepatobiliary AE hyperbilirubenemia, subject 3030 (Cohort 3) | Outcome of hepatobiliary AE hyperbilirubinemia, subject 3044 (Cohort 3) | Outcome of hepatobiliary AE jaundiced, subject 3030 (Cohort 3)
1.06 fold: Serum ALT level, Median fold increase from Baseline at Follow-up Week 4 (Cohort 3, 200 mg QW)
recovered/resolved: Outcome of hepatobiliary AE acute liver injury, subject 3025 (Cohort 3) | Outcome of hepatobiliary AE hyperbilirubinemia, subject 3009 (Cohort 3)
14 (36.8%): Alkaline Phosphatase (any time during therapy) >ULN-[…] ULN, subjects (Cohort 3, 200 mg QW)
5 (12.8%): Gastrointestinal AE Abdominal pain, subjects (Cohort 3, 200 mg QW) | TEAE Abdominal pain Overall Frequency, subjects (Cohort 3, 200 mg QW) | TEAE Diarrhea Grade 2, subjects (Cohort 3, 200 mg QW) | TEAE Hypokalaemia, subjects (Cohort 3, 200 mg QW)
2: Grade of hepatobiliary AE gallbladder sludge, subject 3044 (Cohort 3) | Grade of hepatobiliary AE hyperbilirubenemia, subject 3030 (Cohort 3) | Grade of hepatobiliary AE jaundiced, subject 3030 (Cohort 3)
1: Grade of hepatobiliary AE acute liver injury, subject 3025 (Cohort 3) | Grade of hepatobiliary AE hyperbilirubinemia, subject 3009 (Cohort 3)
2 (5.1%): GI AE Leading to Study Drug Discontinuation: Dyspepsia, subjects (Cohort 3, 200 mg QW) | Gastrointestinal AE Constipation, subjects (Cohort 3, 200 mg QW) | Gastrointestinal AE GERD, subjects (Cohort 3, 200 mg QW) | Hepatobiliary clinical AE Liver injury, subjects (Cohort 3, 200 mg QW) | Intensity of Gastrointestinal AEs, Grade 3, subjects (Cohort 3, 200 mg QW) | Intensity of Gastrointestinal AEs, Grade 4, subjects (Cohort 3, 200 mg QW) | TEAE Diarrhea Grade 3, subjects (Cohort 3, 200 mg QW) | TEAE Hypokalaemia Grade 2, subjects (Cohort 3, 200 mg QW)
not related: Relationship of hepatobiliary AE acute liver injury, subject 3007 (Cohort 3) | Relationship of hepatobiliary AE acute liver injury, subject 3025 (Cohort 3) | Relationship of hepatobiliary AE gallbladder sludge, subject 3044 (Cohort 3) | Relationship of hepatobiliary AE hyperbilirubenemia, subject 3030 (Cohort 3) | Relationship of hepatobiliary AE hyperbilirubinemia, subject 3009 (Cohort 3) | Relationship of hepatobiliary AE hyperbilirubinemia, subject 3044 (Cohort 3) | Relationship of hepatobiliary AE jaundiced, subject 3030 (Cohort 3)
10 (25.6%): Intensity of Gastrointestinal AEs, Grade 2, subjects (Cohort 3, 200 mg QW)
14 (35.9%) n (%): Subjects completed study (Cohort 3, 200 mg QW)
4 (10.5%): ALT (any time during therapy) >3 × ULN-5 × ULN, subjects (Cohort 3, 200 mg QW)
5 (13.2%): ALT (any time during therapy) >5 × ULN-10 × ULN, subjects (Cohort 3, 200 mg QW) | AST (any time during therapy) >3 × ULN-5 × ULN, subjects (Cohort 3, 200 mg QW)
3.13 fold: Serum ALT level, Peak Median fold increase from Baseline (Cohort 3, 200 mg QW)
13 (33.3%): Gastrointestinal AE Diarrhoea, subjects (Cohort 3, 200 mg QW) | TEAE Diarrhea Overall Frequency, subjects (Cohort 3, 200 mg QW)
11 (28.2%): Gastrointestinal AE Nausea, subjects (Cohort 3, 200 mg QW) | TEAE Nausea Overall Frequency, subjects (Cohort 3, 200 mg QW)
3 (7.7%): GI AEs Leading to Study Drug Discontinuation: Total subjects discontinued (Cohort 3, 200 mg QW) | Hepatobiliary clinical AE Hyperbilirubinaemia, subjects (Cohort 3, 200 mg QW)
12 (30.8%): Intensity of Gastrointestinal AEs, Grade 1, subjects (Cohort 3, 200 mg QW)
5 (13.5%): Alkaline Phosphatase (Screening) >ULN-[…] ULN, subjects (Cohort 3, 200 mg QW)
4: Grade of hepatobiliary AE hyperbilirubinemia, subject 3044 (Cohort 3)
0: ALT (Screening) >3 × ULN-5 × ULN, subjects (Cohort 3, 200 mg QW) | ALT (Screening) >5 × ULN-10 × ULN, subjects (Cohort 3, 200 mg QW) | ALT (Screening) >10 × ULN-20 × ULN, subjects (Cohort 3, 200 mg QW) | ALT (Screening) >20 × ULN, subjects (Cohort 3, 200 mg QW) | ALT (any time during therapy) >10 × ULN-20 × ULN, subjects (Cohort 3, 200 mg QW) | AST (Screening) >3 × ULN-5 × ULN, subjects (Cohort 3, 200 mg QW) | AST (Screening) >5 × ULN-10 × ULN, subjects (Cohort 3, 200 mg QW) | AST (Screening) >10 × ULN-20 × ULN, subjects (Cohort 3, 200 mg QW) | AST (Screening) >20 × ULN, subjects (Cohort 3, 200 mg QW) | AST (any time during therapy) >10 × ULN-20 × ULN, subjects (Cohort 3, 200 mg QW) | AST (any time during therapy) >20 × ULN, subjects (Cohort 3, 200 mg QW) | Alkaline Phosphatase (Screening) >2.5-5.0 × ULN, subjects (Cohort 3, 200 mg QW) | Alkaline Phosphatase (Screening) >5.0-20.0 × ULN, subjects (Cohort 3, 200 mg QW) | Alkaline Phosphatase (Screening) >20.0 × ULN, subjects (Cohort 3, 200 mg QW) | Alkaline Phosphatase (any time during therapy) >2.5-5.0 × ULN, subjects (Cohort 3, 200 mg QW) | Alkaline Phosphatase (any time during therapy) >5.0-20.0 × ULN, subjects (Cohort 3, 200 mg QW) | Alkaline Phosphatase (any time during therapy) >20.0 × ULN, subjects (Cohort 3, 200 mg QW) | GI AE Leading to Study Drug Discontinuation: Abdominal pain, subjects (Cohort 3, 200 mg QW) | GI AE Leading to Study Drug Discontinuation: Nausea, subjects (Cohort 3, 200 mg QW) | GI AE Leading to Study Drug Discontinuation: Vomiting, subjects (Cohort 3, 200 mg QW) | Gastrointestinal AE Abdominal distention, subjects (Cohort 3, 200 mg QW) | Gastrointestinal AE Dysphagia, subjects (Cohort 3, 200 mg QW) | Gastrointestinal AE Epigastric discomfort, subjects (Cohort 3, 200 mg QW) | Gastrointestinal AE Gastritis, subjects (Cohort 3, 200 mg QW) | Gastrointestinal AE Haematochezia, subjects (Cohort 3, 200 mg QW) | Gastrointestinal AE Haemorroids, subjects (Cohort 3, 200 mg QW) | Gastrointestinal AE Large intestinal ulcer, subjects (Cohort 3, 200 mg QW) | Gastrointestinal AE Odynophagia, subjects (Cohort 3, 200 mg QW) | Gastrointestinal AE Oesophagitis, subjects (Cohort 3, 200 mg QW) | Gastrointestinal AE Retching, subjects (Cohort 3, 200 mg QW) | Hepatobiliary clinical AE Cholelithiasis, subjects (Cohort 3, 200 mg QW) | Hepatobiliary clinical AE Hepatomegaly, subjects (Cohort 3, 200 mg QW) | Intensity of Gastrointestinal AEs, Grade 5, subjects (Cohort 3, 200 mg QW) | TEAE Abdominal pain Grade 4, subjects (Cohort 3, 200 mg QW) | TEAE Abdominal pain Grade 5, subjects (Cohort 3, 200 mg QW) | TEAE Diarrhea Grade 4, subjects (Cohort 3, 200 mg QW) | TEAE Diarrhea Grade 5, subjects (Cohort 3, 200 mg QW) | TEAE Hypokalaemia Grade 3, subjects (Cohort 3, 200 mg QW) | TEAE Hypokalaemia Grade 4, subjects (Cohort 3, 200 mg QW) | TEAE Hypokalaemia Grade 5, subjects (Cohort 3, 200 mg QW) | TEAE Nausea Grade 4, subjects (Cohort 3, 200 mg QW) | TEAE Nausea Grade 5, subjects (Cohort 3, 200 mg QW) | TEAE Vomiting Grade 4, subjects (Cohort 3, 200 mg QW) | TEAE Vomiting Grade 5, subjects (Cohort 3, 200 mg QW)
2 subject(s): subjects discontinued due to neutropenia (Cohort 3)
6 (15.4%): Gastrointestinal AE Vomiting, subjects (Cohort 3, 200 mg QW)
4 (10.3%): Gastrointestinal AE Dyspepsia, subjects (Cohort 3, 200 mg QW) | TEAE Nausea Grade 2, subjects (Cohort 3, 200 mg QW)
